# Data from patent EP4781986A1, “PHARMACEUTICAL COMPOSITION HAVING IMPROVED PHARMACOKINETIC PROPERTIES” (Sichuan Purity Pharmaceutical Co., Ltd., priority 2023, dated 2025).
# Read-outs that look alike come from different tables or passages of the source.
# Test: PK properties in monkeys with or without alkyl glycoside, intravenous route and nasal spray
# Type: in vivo, cynomolgus monkey
# Conditions: for AUC / bioavailability / Cmax / half-life / Tmax / Vd: cynomolgus monkey, plasma; for AUC: read-out: Area under curve AUC; for bioavailability: read-out: Bioavailability F%; for Cmax: read-out: Concentration to peak Cmax; for half-life: read-out: Half-life period t1/2 (converted); for Tmax: read-out: Time to peak Tmax; for Vd: read-out: Volume of distribution steady-state Vss; for Tmax(DDM 0.2%)/ Tmax(DDM 0%) / onset time (Tmax) shortened by: monkeys, intranasal; for Tmax(DDM 0.2%)/ Tmax(DDM 0%): 0.2% DDM vs without DDM; for onset time (Tmax) shortened by: with vs without alkyl glycoside
# Protocol: Species: cynomolgus monkey, male, 2-5 kg. Source: Ankai Yibo (Zhanjiang) Biotechnology Co., Ltd., Laboratory Animal Production License No.: SCXK (Yue) 2019-0046. Quantity: 3 cynomolgus monkeys were intravenously administered and 3 cynomolgus monkeys were administered by a nasal spray.
# 2.1 An appropriate amount of drug was accurately weighed and added with 50 mM succinate buffer (diluted with D5W, pH=5-6), and mixed evenly and dissolved fully in an ultrasonic and vortexed mode to obtain a 0.5 mg/mL drug solution for intravenous administration.
# (§1) 2.2 An appropriate amount of drug was accurately weighed and added with a solvent 1: 50 mM succinate buffer (diluted with pure water, pH=5-6), and mixed evenly and dissolved fully in an ultrasonic and vortexed mode to obtain a 20 mg/mL drug solution, which was put into a nasal spraying device for administration by the nasal spray, 100 µL/spray.
# as §1, with “2.3” for “2.2”, “2:” for “1:”, “(pH=5-6) containing 0.2% dodecyl-β-D-maltoside,” for “(diluted with pure water, pH=5-6),”
# 5 minutes, 10 minutes, 15 minutes, 0.5 hour, 1 hour, 2 hours, 4 hours, 6 hours, 8 hours, 10 hours, 12 hours and 24 hours after administration.
# Blood was collected through a saphenous vein or a cephalic vein, about 0.6 mL of each sample was collected, EDTA-K2 was used for anticoagulation, the collected blood sample was placed on ice, and plasma was centrifugally separated within 2 hours (at 2000 g and 2-8°C for 10 minutes). The collected plasma samples were stored in a refrigerator at -80°C before analysis, and the remaining plasma samples after analysis were continuously stored in the refrigerator at -80°C for temporary storage.
# A concentration of a specified compound in plasma was determined by LC-MS/MS, and main pharmacokinetic parameters were calculated by a Winnolin 8.3 non-compartmental model. When the pharmacokinetic parameters were calculated, BLQ before Cmax (comprising "No peak") was calculated as 0; and BLQ (comprising "No peak") after Cmax was excluded from the calculation.
# [1] = 1 mg/kg, cynomolgus monkeys, IN@1 mg/kg (Solvent 1, no DDM)
# [2] = 1 mg/kg, cynomolgus monkeys, IN@1 mg/kg (Solvent 2, 0.2% dodecyl-β-D-maltoside)
# [3] = iv, 0.5 mg/kg, cynomolgus monkeys, IV@0.5 mg/kg
# [4] = cynomolgus monkeys, IV@0.5 mg/kg
# [5] = male, other: intranasal (nasal spray), 1 mg/kg, cynomolgus monkeys, IN@1 mg/kg (Solvent 1, no DDM)
# [6] = male, other: intranasal (nasal spray), 1 mg/kg, cynomolgus monkeys, IN@1 mg/kg (Solvent 2, 0.2% dodecyl-β-D-maltoside)
# [7] = male, other: intranasal (nasal spray), cynomolgus monkeys, IN@1 mg/kg (Solvent 2, 0.2% dodecyl-β-D-maltoside)
# [8] = male, other: nasal spray (intranasal), cynomolgus monkeys, IN@1 mg/kg (Solvent 1, no DDM)
# [9] = male, cynomolgus monkeys, IV@0.5 mg/kg
smiles,measurement,setting,value
"Cc1cc(C[C@@H](NC(=O)N2CCC(c3cc4c([nH]c3=O)SCCC4)CC2)C(=O)N2CCN(C3CCN(C)CC3)CC2)cc2cn[nH]c12 [Example 6, (R)-N-(3-(7-methyl-1H-indazole-5-yl)-1-(4-(1-methylpiperidine-4-yl)piperazine-1-yl)-1-oxopropan-2-yl)-4-(7-oxo-3,4,7,8-tetrahydro-2H-thiopyrano[2,3-b]pyridine-6-yl)piperidine-1-formamide]",AUC,[1],43.2 ng·h/mL
same,bioavailability,[1],1.99%
same,Cmax,[1],12.7 ng/mL
same,half-life,[1],9 h
same,Tmax,[1],1 h
same,AUC,[2],780 ng·h/mL
same,bioavailability,[2],29.8%
same,Cmax,[2],663 ng/mL
same,half-life,[2],5.57 h
same,Tmax,[2],~0.17 h
same,AUC,[3],1140 ng·h/mL
same,Cmax,[3],3200 ng/mL
same,half-life,[3],4.98 h
same,Vd,[4],0.652 L/kg
same,Tmax(DDM 0.2%)/ Tmax(DDM 0%),,16.7%
same,onset time (Tmax) shortened by,,83.3%
"Cc1cc(C[C@@H](NC(=O)N2CCC(c3cc4c([nH]c3=O)SCC4)CC2)C(=O)N2CCN(C3CCN(C)CC3)CC2)cc2cn[nH]c12 [Example 8, (R)-N-(3-(7-methyl-1H-indazole-5-yl)-1-(4-(1-methylpiperidine-4-yl)piperazine-1-yl)-1-oxopropan-2-yl)-4-(6-oxo-2,3,6,7-tetrahydrothieno[2,3-b]pyridine-5-yl)piperidine-1-formamide]",Apparent clearance CL,[4],9.27 mL/min/kg
same,bioavailability,[5],2.5%
same,Tmax,[5],1 h
same,bioavailability,[6],26.4%
same,Tmax,[6],~0.17 h
same,AUC,[7],412 ng·h/mL
same,Cmax,[7],401 ng/mL
same,half-life,[7],4.92 h
same,AUC,[8],46.1 ng·h/mL
same,Cmax,[8],13.4 ng/mL
same,half-life,[8],5.58 h
same,AUC,[9],924 ng·h/mL
same,Cmax,[9],2280 ng/mL
same,half-life,[9],4.98 h
same,Vd,[9],0.738 L/kg
same,Tmax(DDM 0.2%)/ Tmax(DDM 0%),,16.7%
same,onset time (Tmax) shortened by,,83.3%
